We go through ten molecules from ChEMBL document CHEMBL1201862, “PubChem BioAssay data set” (2004).

The structures appear in SMILES notation.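 All cell lines were grown in 96-well plates and treated with compound for 48 hours. GI50 = concentration required for 50% inhibition of growth.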 Active and inactive are the calls of the source. No stated cut-off is given here; in the data, active = GI50 up to about 1.1 µM and inactive = higher.

Assay in all cases: NCI tumour cell line growth inhibition, 48 h
Test [1] concerns NCI-H460.
For test [2], the system named is OVCAR-3.
The test system of test [3] is SR.
Test [4] deals with NCI-H23.
Test [5] relates to NCI-H226.
Test [6] concerns MOLT-4.
The test system of test [7] is SF-268.
Test [8] concerns 786-0.
Test [9] has as its system DU-145.
The test system of test [10] is TK-10.
Test [11] deals with OVCAR-4.
Test [12] concerns M14.
Test [13] concerns OVCAR-5.
The subject of test [14] is HCT-15.
The subject of test [15] is HT-29.
In test [16] the test system is SF-539.
Test [17] deals with UACC-62.
Test [18] has as its system RXF 393.
Test [19] concerns K562.
Test [20] relates to CCRF-CEM.

On to `CC(=O)OC12c3ccccc3C(c3ccccc31)C1C(=O)N(Nc3ccccc3)C(=O)C12` (stereo not drawn), for which the GI50 in test [1], in [2], in test [3], in [4], in test [5] and in test [6] was > 100 µM (inactive) throughout. The GI50 in [7], in [8], in [9], in test [10], in [11] and in [12] was > 100 µM (inactive) in each case. The GI50 in test [13] is > 100 µM (inactive); in test [14], more than 100 µM; in test [15], > 100 µM (inactive); in [16] it was > 100 µM (inactive); in test [17], > 10 µM (inactive); in test [18], > 100 µM (inactive). For the same molecule, the GI50 in test [19] and in test [20] was > 100 µM (inactive) throughout.

Regarding `Cc1n[nH]c(=O)c2cc(-c3ccccc3)[nH]c12`, the GI50 was 48 µM (inactive) in [1]; 54.1 µM (inactive) in [2]; 46.8 µM (inactive) in test [3]; 84.1 µM (inactive) in [4]; 72.9 µM (inactive) in test [5]; 17.6 µM (inactive) in test [6]. Also, the GI50 was 59.7 µM (inactive) in [7]; > 100 µM (inactive) in [8]; 94.8 µM (inactive) in test [9]; 59.3 µM (inactive) in [10]; 52.6 µM (inactive) in [11]; 53.3 µM (inactive) in test [12]. The GI50 in test [13] is 50.7 µM (inactive); in [14], 54.2 µM; in test [15] it was 33.2 µM (inactive); in test [16], > 100 µM (inactive); in [17], 33.8 µM (inactive); in [18], > 100 µM (inactive). Further, the GI50 in test [19] was 38.6 µM (inactive); in test [20], 48.2 µM (inactive).

Take `Cc1nn(C(=O)c2ccc(Cl)cc2)c2c1C(c1ccc(O)cc1)SC(=N)N2` (stereo not drawn): the GI50 in test [1], in test [2], in test [3], in test [4], in test [5] and in test [6] was > 10 µM (inactive) each time. Further, the GI50 in test [7], in [8], in [9], in test [10], in [11] and in test [12] was > 10 µM (inactive) each time. Further, the GI50 in test [13] is > 10 µM (inactive); in test [14], more than 10 µM; in [15] it was > 10 µM (inactive); in [16] it was > 10 µM (inactive); in test [17] it was > 10 µM (inactive); in test [18], > 10 µM (inactive). Also, the GI50 in [19] and in test [20] was > 10 µM (inactive) each time.

`COC1CCC(O)C(/C=C/[N+](=O)[O-])C1` (stereo not drawn): the GI50 in test [1] was 2.62 µM (inactive); in [2], 8.3 µM (inactive); in test [3] it was 1.59 µM (inactive); in test [4], 3.91 µM (inactive); in [5], 2.07 µM (inactive); in test [6], 2.18 µM (inactive). The GI50 in [7] was 3.37 µM (inactive); in test [8], 1.7 µM (inactive); in test [9], 3.64 µM (inactive); in [10] it was 4.72 µM (inactive); in test [11], 14.8 µM (inactive); in test [12], 2.68 µM (inactive). Also, the GI50 in test [13] was 9.1 µM (inactive); in test [14] it was 1.82 µM; in test [15], 3.37 µM (inactive); in test [16], 4.4 µM (inactive); in [17], 6.24 µM (inactive); in test [18], 1.42 µM (inactive). Also, the values for the GI50 in test [19] and in test [20] were 3.03 µM (inactive) and 2.69 µM (inactive), respectively.

For the molecule `O=C1c2ccsc2-c2cccc3cccc1c23.O=C1c2sccc2-c2cccc3cccc1c23`, the GI50 in test [1] was 4.94 µM (inactive); in test [2] it was 10.5 µM (inactive); in [3], 0.203 µM (active); in [5], 2.03 µM (inactive); in test [6], 1.29 µM (inactive); in [7], 7.89 µM (inactive). For the same molecule, the GI50 is 5.89 µM (inactive) in [8]; 0.65 µM (active) in test [9]; 2.55 µM (inactive) in test [10]; 11 µM (inactive) in [11]; 18.9 µM (inactive) in [12]; 1.71 µM (inactive) in test [13]. For the same molecule, the GI50 in [14] was 3.18 µM; in test [15], 2.11 µM (inactive); in [16], 6.22 µM (inactive); in test [17] it was 4.15 µM (inactive); in [18], 2.49 µM (inactive); in test [19], 10 µM (inactive). Besides, in test [20], the GI50 is 0.692 µM (active).

Consider `CCCCCCCCC#CCCCCCCC(F)C(=O)O` (stereo not drawn), for which the GI50 in [1], in test [2], in test [3], in test [4], in [5] and in [6] was > 100 µM (inactive) throughout. Moreover, the GI50 in [7] is > 100 µM (inactive); in test [8], > 100 µM (inactive); in [9], > 100 µM (inactive); in test [10], > 100 µM (inactive); in [11], 83.6 µM (inactive); in test [12] it was > 100 µM (inactive). For the same molecule, the GI50 in test [13] is > 100 µM (inactive); in [14] it was more than 100 µM; in test [15], > 100 µM (inactive); in [16], > 100 µM (inactive); in test [18] it was > 100 µM (inactive); in test [19] it was 40 µM (inactive). For the same molecule, in [20], the GI50 was > 100 µM (inactive).

Consider `COC(=O)C12OCC34C(CC5C(C)=C(O)C(=O)CC5(C)C3C(O)C1O)OC(=O)C(OC(=O)C=C(C)C)C24` (stereo not drawn), for which the GI50 in [1] is 161 µM (inactive); in test [3] it was 0.215 µM (active); in test [4], > 469 µM (inactive); in test [5] it was 436 µM (inactive); in test [6], 297 µM (inactive); in [7], > 500 µM (inactive). Besides, the GI50 was 0.275 µM (active) in [8]; 0.318 µM (active) in test [9]; < 0.215 µM (active) in test [10]; < 0.215 µM (active) in test [11]; < 0.215 µM (active) in [12]; > 500 µM (inactive) in [13]. Besides, the GI50 is more than 500 µM in [14]; > 500 µM (inactive) in test [15]; > 500 µM (inactive) in [16]; > 500 µM (inactive) in [17]; 303 µM (inactive) in test [18]; > 486 µM (inactive) in test [19]. Besides, in [20], the GI50 was 307 µM (inactive).

As to `[N-]=[N+]=NI1OC(=O)c2ccccc21`, the GI50 in test [2] was > 100 µM (inactive); in test [3], 38.7 µM (inactive); in [4] it was > 100 µM (inactive); in [5], > 100 µM (inactive); in test [6] it was 66.8 µM (inactive); in [7], 73.6 µM (inactive). Besides, the GI50 was > 100 µM (inactive) in [8]; > 100 µM (inactive) in test [9]; > 100 µM (inactive) in [10]; > 100 µM (inactive) in test [11]; > 100 µM (inactive) in test [12]; 66.5 µM (inactive) in test [13]. In addition, the GI50 is 50.7 µM in test [14]; > 100 µM (inactive) in [15]; > 100 µM (inactive) in [16]; > 100 µM (inactive) in [17]; 32.2 µM (inactive) in [18]; 36.6 µM (inactive) in test [19]. In [20], the GI50 is 37.9 µM (inactive).

For the molecule `CC(=O)OC[C@H]1On2nnnc2[C@H](OC(C)=O)[C@@H](OC(C)=O)[C@@H]1OC(C)=O`, the GI50 in test [1], in test [2], in test [3], in test [4], in test [5] and in test [6] was > 100 µM (inactive) throughout. The GI50 is > 100 µM (inactive) in test [7]; > 100 µM (inactive) in test [8]; > 100 µM (inactive) in test [9]; 31 µM (inactive) in test [10]; > 100 µM (inactive) in test [11]; > 100 µM (inactive) in [13]. In addition, the GI50 in [14] is more than 100 µM; in [15], > 100 µM (inactive); in [16], > 100 µM (inactive); in test [17] it was > 100 µM (inactive); in test [18], > 100 µM (inactive); in test [19], > 100 µM (inactive). The GI50 in [20] is > 100 µM (inactive).

Consider `Cc1c(C)c2c(c(N)c1C#N)C(=O)N(CCc1ccccc1)C2=O`, for which the GI50 was > 100 µM (inactive) in [1]; > 100 µM (inactive) in test [2]; 38.5 µM (inactive) in test [3]; > 100 µM (inactive) in test [5]; 72.6 µM (inactive) in [6]; > 100 µM (inactive) in test [7]. The GI50 in test [8], in test [9], in test [10], in [11], in test [12] and in test [13] was > 100 µM (inactive) each time. Besides, the GI50 was more than 100 µM in [14]; > 100 µM (inactive) in [16]; > 100 µM (inactive) in test [17]; > 100 µM (inactive) in [18]; > 100 µM (inactive) in test [19]; > 100 µM (inactive) in test [20].
